Measurements: patent publication US20230085307A1, “PYRIDAZINONE COMPOUND AND HERBICIDE” (NISSAN CHEMICAL CORPORATION, priority 2019, published 2023)

Tests used:
southern crabgrass = experiment: Test Example 5: herbicidal effect by foliage application, plastic box (Table 20, symbol F); type: in vivo, southern crabgrass (Digitaria ciliaris); details: foliage application, three weeks after application
How it was run: (§1)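 Post-emergence foliar test in sterilized diluvial soil. Compound applied as water-diluted emulsion at a predetermined rate to 14-day-old plants; evaluation at three weeks.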

Italian ryegrass = experiment: Test Example 4: herbicidal effect by soil treatment (Table 19, symbol K); type: in vivo, Italian ryegrass (Lolium multiflorum)
How it was run: (§2)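 Emulsion of test compound, water-diluted to predetermined amount, sprayed on soil after sowing (seed depth ~1.5 cm, sterilized diluvial soil). Greenhouse, 25–30° C. Effect graded at three weeks post-spray.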

windgrass [1] = experiment: Test Example 5: herbicidal effect by foliage application, plastic box (Table 20, symbol L); type: in vivo, windgrass (Apera spica-venti); details: foliage application, three weeks after application
How it was run: as §1

windgrass [2] = experiment: Test Example 4: herbicidal effect by soil treatment (Table 19, symbol L); type: in vivo, windgrass (Apera spica-venti)
How it was run: as §2

Chinese sprangletop = experiment: Test Example 3: herbicidal effect by foliage application, Wagner pot (Table 18, symbol D); type: in vivo, chinese sprangletop (Leptochloa chinensis)
How it was run: (§3)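 Plants were sown in alluvial soil held under 0.1–0.5 cm standing water and grown 14 days in a greenhouse at 25–30 °C. An emulsifiable formulation, water-diluted to the set dose, was then sprayed onto the foliage, and effects were scored three weeks later using previously defined criteria.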

rice flat sedge = experiment: Test Example 3: herbicidal effect by foliage application, Wagner pot (Table 18, symbol E); type: in vivo, rice flat sedge (Cyperus iria)
How it was run: as §3

Japanese bulrush [3] = experiment: Test Example 1: herbicidal activity, application before weed generation under submerged conditions (Table 16, symbol B); type: in vivo, Japanese bulrush (Schoenoplectus juncoides)
How it was run: (§4)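 Submerged Wagner pots (alluvial soil, 4 cm water) sown with weed seeds and planted with 2.5-leaf rice seedlings; emulsifiable concentrate diluted in water applied to water surface on sowing day. Held in greenhouse at 25-30 °C; injury scored 0-5 by herbicidal rate after three weeks.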

redroot pigweed [4] = experiment: Test Example 4: herbicidal effect by soil treatment (Table 19, symbol N); type: in vivo, redroot pigweed (Amaranthus retroflexus)
How it was run: as §2

green foxtail = experiment: Test Example 4: herbicidal effect by soil treatment (Table 19, symbol G); type: in vivo, green foxtail (Setaria viridis)
How it was run: as §2

oval-leafed pondweed = experiment: Test Example 1: herbicidal activity, application before weed generation under submerged conditions (Table 16, symbol C); type: in vivo, oval-leafed pondweed (Monochoria vaginalis)
How it was run: as §4

persian speedwell = experiment: Test Example 5: herbicidal effect by foliage application, plastic box (Table 20, symbol R); type: in vivo, Persian speedwell (Veronica persica); details: foliage application, three weeks after application
How it was run: as §1

Japanese bulrush [5] = experiment: Test Example 2: herbicidal activity, application during weed generation under submerged conditions (Table 17, symbol B); type: in vivo, Japanese bulrush (Schoenoplectus juncoides); details: application during weed generation, submerged conditions
How it was run: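 Steps: fill Wagner pots with alluvial soil; add water to give 4 cm depth; sow the species mixed; grow under glass at 25–30° C.; at 1–2 leaves apply water-diluted emulsion formulation to the water surface at a fixed herbicide amount; score after 3 weeks.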

redroot pigweed [6] = experiment: Test Example 5: herbicidal effect by foliage application, plastic box (Table 20, symbol N); type: in vivo, redroot pigweed (Amaranthus retroflexus); details: foliage application, three weeks after application
How it was run: as §1

lambsquarters = experiment: Test Example 5: herbicidal effect by foliage application, plastic box (Table 20, symbol O); type: in vivo, lambsquarters (Chenopodium album); details: foliage application, three weeks after application
How it was run: as §1

wild oat [7] = experiment: Test Example 5: herbicidal effect by foliage application, plastic box (Table 20, symbol I); type: in vivo, wild oat (Avena fatua); details: foliage application, three weeks after application
How it was run: as §1

chickweed = experiment: Test Example 4: herbicidal effect by soil treatment (Table 19, symbol P); type: in vivo, common chickweed (Stellaria media)
How it was run: as §2

wild oat [8] = experiment: Test Example 4: herbicidal effect by soil treatment (Table 19, symbol I); type: in vivo, wild oat (Avena fatua)
How it was run: as §2

[9] = amount of applied herbicide 320 g/ha
[10] = amount of applied herbicide 80 g/ha

Row | SMILES | F: southern crabgrass, herbicidal effect grade (southern crabgrass; 320 g/ha) | K: Italian ryegrass, herbicidal effect grade (Italian ryegrass; [9]) | L: windgrass, herbicidal effect grade (windgrass [1]; 320 g/ha) | L: windgrass, herbicidal effect grade (windgrass [2]; [9]) | herbicidal effect on Chinese sprangletop (D) (Chinese sprangletop; 320 g/ha) | herbicidal effect on rice flat sedge (E) (rice flat sedge; 320 g/ha) | Herbicidal effect, B: Japanese bulrush (Japanese bulrush [3]; [9]) | N: redroot pigweed, herbicidal effect grade (redroot pigweed [4]; [9]) | G: green foxtail, herbicidal effect grade (green foxtail; [9]) | Herbicidal effect, C: oval-leafed pondweed (oval-leafed pondweed; [9]) | R: persian speedwell, herbicidal effect grade (persian speedwell; 320 g/ha) | herbicidal effect rating, B: Japanese bulrush (Japanese bulrush [5]; AAH 320 g/ha) | N: redroot pigweed, herbicidal effect grade (redroot pigweed [6]; 320 g/ha) | O: lambsquarters, herbicidal effect grade (lambsquarters; 320 g/ha) | I: wild oat, herbicidal effect grade (wild oat [7]; 320 g/ha) | P: chickweed, herbicidal effect grade (chickweed; [9]) | I: wild oat, herbicidal effect grade (wild oat [8]; [9]) | also measured
1 | COc1cc(F)ccc1-c1sc2cc(C)ccc2c1-c1c(O)c(C)nn(C)c1=O [3-055] | 5 (Herbicidal rate of 90% or more (almost completely withered)) | 0 (Herbicidal rate of 5% or less (almost no effect)) | 5 (Herbicidal rate of 90% or more (almost completely withered)) | 2 (Herbicidal rate of 20% or more and less than 40%) | 4 (Herbicidal rate of 70% or more and less than 90%) | 5 (Herbicidal rate of 90% or more (almost completely withered)) | 4 (Herbicidal rate of 70% or more and less than 90%) | 0 (Herbicidal rate of 5% or less (almost no effect)) | 0 (Herbicidal rate of 5% or less (almost no effect)) | 3 (Herbicidal rate of 40% or more and less than 70%) | 5 (Herbicidal rate of 90% or more (almost completely withered)) | 1 (Herbicidal rate of 5% or more and less than 20%) | 5 (Herbicidal rate of 90% or more (almost completely withered)) | 5 (Herbicidal rate of 90% or more (almost completely withered)) | 5 (Herbicidal rate of 90% or more (almost completely withered)) | 4 (Herbicidal rate of 70% or more and less than 90%) | 3 (Herbicidal rate of 40% or more and less than 70%) | –
2 | CCCC(=O)Oc1c(C)nn(C)c(=O)c1-c1c(-c2ccccc2OCC)sc2cc(OC)ccc12 [3-071] | 5 (Herbicidal rate of 90% or more (almost completely withered)) | 2 (Herbicidal rate of 20% or more and less than 40%) | 5 (Herbicidal rate of 90% or more (almost completely withered)) | 4 (Herbicidal rate of 70% or more and less than 90%) | 5 (Herbicidal rate of 90% or more (almost completely withered)) | 5 (Herbicidal rate of 90% or more (almost completely withered)) | 5 (Herbicidal rate of 90% or more (almost completely withered)) | 4 (Herbicidal rate of 70% or more and less than 90%) | 4 (Herbicidal rate of 70% or more and less than 90%) | 5 (Herbicidal rate of 90% or more (almost completely withered)) | 5 (Herbicidal rate of 90% or more (almost completely withered)) | 5 (Herbicidal rate of 90% or more (almost completely withered)) | 5 (Herbicidal rate of 90% or more (almost completely withered)) | 5 (Herbicidal rate of 90% or more (almost completely withered)) | 5 (Herbicidal rate of 90% or more (almost completely withered)) | 5 (Herbicidal rate of 90% or more (almost completely withered)) | 3 (Herbicidal rate of 40% or more and less than 70%) | –
3 | CCOc1cc(F)ccc1-c1sc2cc(OC)ccc2c1-c1c(O)c(C)nn(C)c1=O [3-078] | – | – | – | – | – | – | – | – | – | – | – | – | – | – | – | – | – | F: southern crabgrass, herbicidal effect grade (southern crabgrass; 80 g/ha): 5 (Herbicidal rate of 90% or more (almost completely withered)); K: Italian ryegrass, herbicidal effect grade (Italian ryegrass; [10]): 3 (Herbicidal rate of 40% or more and less than 70%); L: windgrass, herbicidal effect grade (windgrass [1]; 80 g/ha): 5 (Herbicidal rate of 90% or more (almost completely withered)); L: windgrass, herbicidal effect grade (windgrass [2]; [10]): 0 (Herbicidal rate of 5% or less (almost no effect)); herbicidal effect on Chinese sprangletop (D) (Chinese sprangletop; 80 g/ha): 3 (Herbicidal rate of 40% or more and less than 70%); herbicidal effect on rice flat sedge (E) (rice flat sedge; 80 g/ha): 5 (Herbicidal rate of 90% or more (almost completely withered)); Herbicidal effect, B: Japanese bulrush (Japanese bulrush [3]; [10]): 5 (Herbicidal rate of 90% or more (almost completely withered)); N: redroot pigweed, herbicidal effect grade (redroot pigweed [4]; [10]): 3 (Herbicidal rate of 40% or more and less than 70%); G: green foxtail, herbicidal effect grade (green foxtail; [10]): 0 (Herbicidal rate of 5% or less (almost no effect)); Herbicidal effect, C: oval-leafed pondweed (oval-leafed pondweed; [10]): 4 (Herbicidal rate of 70% or more and less than 90%); R: persian speedwell, herbicidal effect grade (persian speedwell; 80 g/ha): 5 (Herbicidal rate of 90% or more (almost completely withered)); herbicidal effect rating, B: Japanese bulrush (Japanese bulrush [5]; AAH 80 g/ha): 5 (Herbicidal rate of 90% or more (almost completely withered)); N: redroot pigweed, herbicidal effect grade (redroot pigweed [6]; 80 g/ha): 5 (Herbicidal rate of 90% or more (almost completely withered)); O: lambsquarters, herbicidal effect grade (lambsquarters; 80 g/ha): 5 (Herbicidal rate of 90% or more (almost completely withered)); I: wild oat, herbicidal effect grade (wild oat [7]; 80 g/ha): 5 (Herbicidal rate of 90% or more (almost completely withered)); P: chickweed, herbicidal effect grade (chickweed; [10]): 5 (Herbicidal rate of 90% or more (almost completely withered)); I: wild oat, herbicidal effect grade (wild oat [8]; [10]): 0 (Herbicidal rate of 5% or less (almost no effect))
4 | CCCC(=O)Oc1c(C)nn(C)c(=O)c1-c1c(-c2ccc(F)cc2OCC)sc2cc(OC)ccc12 [3-079] | 5 (Herbicidal rate of 90% or more (almost completely withered)) | 0 (Herbicidal rate of 5% or less (almost no effect)) | 5 (Herbicidal rate of 90% or more (almost completely withered)) | 3 (Herbicidal rate of 40% or more and less than 70%) | 4 (Herbicidal rate of 70% or more and less than 90%) | 5 (Herbicidal rate of 90% or more (almost completely withered)) | 5 (Herbicidal rate of 90% or more (almost completely withered)) | 4 (Herbicidal rate of 70% or more and less than 90%) | 1 (Herbicidal rate of 5% or more and less than 20%) | 5 (Herbicidal rate of 90% or more (almost completely withered)) | 5 (Herbicidal rate of 90% or more (almost completely withered)) | 5 (Herbicidal rate of 90% or more (almost completely withered)) | 4 (Herbicidal rate of 70% or more and less than 90%) | 5 (Herbicidal rate of 90% or more (almost completely withered)) | 5 (Herbicidal rate of 90% or more (almost completely withered)) | 4 (Herbicidal rate of 70% or more and less than 90%) | 0 (Herbicidal rate of 5% or less (almost no effect)) | –
